In US6878364B2, “Animal model for flaviviridae infection” (Cornell Research Foundation, Inc., priority 2000, dated 2005):
Like-named read-outs stand apart in the source and are kept apart here.

How the values were obtained:
[1] = Cytotoxicity on uninfected woodchuck primary hepatocytes (CytoTox96); format: cell-based
HCV = details: cited from earlier work
[2] = system: cpBVDV (cytopathogenic NADL isolate of BVDV); assay: microbe, parasite or virus in culture; details: Bovine viral diarrhea virus isolates and strains, in Marmota monax, 72 h, read-out: ckEC50 (drug concentration sufficient to inhibit 50% of viral induced cell killing)
Protocol: (§1) BVDV stocks and titration: The cytopathogenic NADL isolate of BVDV (cpBVDV) was used for the purposes of this study. A viral stock was made by freeze-thaw of a bovine testicular cell line 5 days after infection with cpBVDV. Virus propagated in bovine cells and woodchuck cell cultures was tittered in NCL cells by measuring cytopathic effects (CPE). NCL cells grown to confluence, were passaged to 96 well microtiter plates at a density of 2×10^4 cells/well (5×10^5/cm^2) and incubated for one hour to allow cell attachment. After attachment, cell cultures were inoculated with serially diluted tissue culture supernatant samples. The endpoint BVDV titer was taken as the reciprocal of the last dilution in which cells were killed 5 days post-infection in one of three triplicate wells, assayed by methylene blue staining.
(§2) Methylene blue assay: A quantitative measure of cell numbers was obtained through reading the absorbance of methylene blue (Sigma, St. Louis, Mo.) uptake by viable cells. Briefly, three days after infection of cells with cpBVDV, cultures were rinsed with phosphate buffered saline (PBS; Life Technologies) followed by fixation in a Hanks balanced salt solution (HBSS; LifeTechnologies) consisting of 1.25% glutaraldehyde (Fisher Scientific, Fair Lawn, N.J.) and 0.06% methylene blue (Sigma), for 1 hour at 37° C. […] The absorbance of the methylene blue in solution was measured using an ELISA plate reader (Model EL311; Bio-Tek instruments Inc., Winooski, Vt.) with a light filter setting at 630 nm. A standard curve was established for each cell line relating absorbance with cell numbers. […]
(§3) The medium was replenished daily with drug and the antiviral effect, cytotoxicity, and reduction in viral yield determined after three days of treatment.
(§4) Cell killing due to cpBVDV infection and drug cytotoxicity was calculated for each experimental data point and plotted. […] A drug concentration sufficient to inhibit 50% of viral induced cell killing (ckEC50) was determined using a peak, log normal, 4 parameter equation. […] A selectivity index (SI) was determined as the CC50/EC90 ratio.

[3] = system: cpBVDV (cytopathogenic NADL isolate of BVDV)
Protocol: as §1, §2, §3, §4

[4] = system: cpBVDV (cytopathogenic NADL isolate of BVDV); remark: listed apart in the source
Protocol: as §1, §2, §3, §4

[5] = Cytotoxicity on uninfected WCH-8 cells (methylene blue assay); format: cell-based; details: woodchuck, uninfected woodchuck hepatic WCH-8 cells, three days of treatment
in vitro = format: cell-based; details: bovine
[6] = system: cpBVDV (cytopathogenic NADL isolate of BVDV); remark: listed apart in the source
Protocol: Virus propagated in bovine cells and woodchuck cell cultures was tittered in NCL cells by measuring cytopathic effects (CPE). NCL cells grown to confluence, were passaged to 96 well microtiter plates at a density of 2×10^4 cells/well (5×10^5/cm^2) and incubated for one hour to allow cell attachment. After attachment, cell cultures were inoculated with serially diluted tissue culture supernatant samples. The endpoint BVDV titer was taken as the reciprocal of the last dilution in which cells were killed 5 days post-infection in one of three triplicate wells, assayed by methylene blue staining.
Antiviral assay: A lyophilized form of Ribavirin (Virazole^R; Viratek, Inc., Covina, Calif.) was dissolved in H2O to a yield a stock concentration of 100 mM and serially diluted two fold in culture medium prior to testing over a range of 100-0.049 μM. Ribavirin was evaluated in woodchuck WCH-8 cells and in bovine NCL cells in a 96 well format using the methylene blue assay to measure cell viability. The medium was replenished daily with drug and the antiviral effect, cytotoxicity, and reduction in viral yield determined after three days of treatment. […]
Cell killing due to cpBVDV infection and drug cytotoxicity was calculated for each experimental data point and plotted. […] A selectivity index (SI) was determined as the CC50/EC90 ratio.

[7] = system: cpBVDV (cytopathogenic NADL isolate of BVDV); assay: microbe, parasite or virus in culture; details: Bovine viral diarrhea virus isolates and strains, in Bos taurus, 72 h, read-out: ckEC50 (drug concentration sufficient to inhibit 50% of viral induced cell killing)
Protocol: as §1, §2, §3, §4

NC(=O)c1ncn([C@@H]2O[C@H](CO)[C@@H](O)[C@H]2O)n1 [Ribavirin, 1-β-D-ribofuranosyl-1-1,2,4-triazole-3-carboxamide]
CC50 [1]: 44.8 µM
patients with serum amino transferase levels reduced to normal (HCV): 40%
EC50 [2]: 1500 nM
selectivity index (CC50/tEC90) ([3]; WCH-8 cells): 2.7
tEC90 (drug concentration which reduced viral titers by 90%) ([3]; cpBVDV-infected WCH-8 cells, three days of treatment): 1.1 µM
selectivity index (CC50/tEC90) ([4]; NCL cells): 1.7
tEC90 (drug concentration which reduced viral titers by 90%) ([4]; cpBVDV-infected NCL cells, three days of treatment): 3.1 µM
CC50 at 3 days [5]: 2900 nM
CC50 at 3 days (in vitro): 4.3 µM
tEC90 (drug concentration which reduced viral titers by 90%) ([6]; cpBVDV-infected woodchuck primary hepatocytes): 3 µM
selectivity index (CC50/tEC90) ([6]; woodchuck primary hepatocytes): 14.9
EC50 [7]: 5.2 µM
